Data taken from patent US12187713B2, “Immunomodulators, compositions and methods thereof” (Betta Pharmaceuticals Co., Ltd, priority 2019, dated 2025).

Columns and labels:
[1] = Pharmacokinetic Assay, single oral dose 5 mg/kg (Table 12); type: in vivo; conditions: mouse, plasma concentration, C57 female mice, single oral dose 5 mg/kg
Method: Adult C57 female mice were received to single-dose of the test compounds with 15% DMSO, 10% Kolliphor^@HS 15 and 75% saline as excipients, the mice (n=3) were giving oral administration (intragastric administration) with the compounds at a dose of 5 mg/kg. Time of blood collection: 30 min, 2 h, 4 h. approximately 0.1 mL of whole blood was collected from retro-orbital venous plexus, and placed into tubes that contained K2-EDTA as an anticoagulant. The whole blood were centrifuged at 4° C. and 4000 rpm for 10 min. The plasma was transferred into centrifuge tubes, and stored at −20° C. until being analyzed. Concentrations of test compounds in the plasma samples were analyzed with liquid chromatography-tandem mass spectrometry (LC-MS/MS). Plasma concentration-time data of individual animals was analyzed using Microsoft Excel 2010.

PD-1/PD-L1 = PD-1/PD-L1 (Homo sapiens (Human), UniProt Q9NZQ7); test: PD-1/PD-L1 Binding Assay (Alphascreen)
Sequence of PD-1/PD-L1 (Q9NZQ7 19-238): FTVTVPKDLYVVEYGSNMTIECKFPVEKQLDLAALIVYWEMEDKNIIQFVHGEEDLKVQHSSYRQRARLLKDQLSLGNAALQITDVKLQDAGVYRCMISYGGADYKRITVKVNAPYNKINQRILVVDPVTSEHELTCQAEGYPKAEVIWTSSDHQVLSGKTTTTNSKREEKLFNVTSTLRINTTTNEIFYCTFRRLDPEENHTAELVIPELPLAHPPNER
How it was run: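 PD-1/PD-L1 binding detected by anti-6×His acceptor and streptavidin donor beads after 120 min in the dark at 25 °C. Beforehand, the two proteins were incubated 15 min at 25 °C with inhibitor at 0.015–300 nM (1% DMSO). IC50 comes from a log concentration–response curve.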

Row | Structure (SMILES) | concentration at 0.5 h [1] [ng/mL] | concentration at 2 h [1] [ng/mL] | concentration at 4 h [1] [ng/mL] | IC50 (PD-1/PD-L1; range symbols) [nM] | IC50 (PD-1/PD-L1; numeric values) [nM]
1 | Cc1c(-c2nc3cc(CN4CCC[C@H]4C(=O)O)c(OC(F)F)cc3o2)cccc1-c1cccc(-c2nc3cc(CN(C)CC#N)cc(C#N)c3o2)c1C [Example 136, ((2-(3′-(7-cyano-5-(((cyanomethyl) (methyl)amino)methyl)benzo [d]oxazol-2-yl)-2,2′-dimethyl-[1,1′-biphenyl]-3-yl)-6-(difluoromethoxy)benzo[d]oxazol-5-yl)methyl)-L-proline] | 673 | 736 | 545 | 0.1 to 5 | 
2 | Cc1c(-c2nc3cc(CN4C[C@@H](F)[C@H](F)C4)c(OC(F)F)cc3o2)cccc1-c1cccc(-c2nc3cc(CN4CCC[C@H]4C(=O)O)c(OC(F)F)cc3o2)c1C [Example 18, ((6-(difluoromethoxy)-2-(3′-(6-(difluoromethoxy)-5-(((3R,4R)-3,4-difluoropyrrolidin-1-yl)methyl)benzo[d]oxazol-2-yl)-2,2′-dimethyl-[1,1′-biphenyl]-3-yl)benzo[d]oxazol-5-yl)methyl)-L-proline] | 303 | 642 | 626 |  | 164
3 | Cc1c(-c2nc3cc(CN4CCN(C)C(C)C4)c(OC(F)F)cc3o2)cccc1-c1cccc(-c2nc3cc(CN4CCC[C@H]4C(=O)O)c(OC(F)F)cc3o2)c1C (stereo partly drawn) [Example 23, ((6-(difluoromethoxy)-2-(3′-(6-(difluoromethoxy)-5-((3,4-dimethylpiperazin-1-yl)methyl)benzo[d]oxazol-2-yl)-2,2′-dimethyl-[1,1′-biphenyl]-3-yl)benzo[d]oxazol-5-yl)methyl)-L-proline] | 46.2 | 148 | 94.7 |  | 7.7
4 | Cc1c(Nc2nccc3cc(CN4CCOCC4)cnc23)cccc1-c1cccc(-c2nc3cc(CN4CCC[C@H]4C(=O)O)c(OC(F)F)cc3o2)c1C [Example 176, ((6-(difluoromethoxy)-2-(2,2′-dimethyl-3′-((3-(morpholinomethyl)-1,7-naphthyridin-8-yl)amino)-[1,1′-biphenyl]-3-yl)benzo[d]oxazol-5-yl)methyl)-L-proline] |  |  |  |  | 0.9
5 | CNCC1CN(Cc2cc3nc(-c4cccc(-c5cccc(-c6nc7cc(CN8CCC[C@H]8C(=O)O)c(OC(F)F)cc7o6)c5C)c4C)oc3cc2OC(F)F)C1 [Example 45, ((6-(difluoromethoxy)-2-(3′-(6-(difluoromethoxy)-5-((3-((methylamino)methyl)azetidin-1-yl)methyl)benzo[d]oxazol-2-yl)-2,2′-dimethyl-[1,1′-biphenyl]-3-yl)benzo[d]oxazol-5-yl)methyl)-L-proline] |  |  |  | 0.1 to 5 | 
6 | Cc1c(-c2nc3cc(CN(C)[C@@H]4CCC[C@@H]4O)c(OC(F)F)cc3o2)cccc1-c1cccc(-c2nc3cc(CN4CCC[C@@H]4C(=O)O)c(OC(F)F)cc3o2)c1C [Example 26, ((6-(difluoromethoxy)-2-(3′-(6-(difluoromethoxy)-5-((((1R,2S)-2-hydroxycyclopentyl) (methyl)amino)methyl)benzo[d]oxazol-2-yl)-2,2′-dimethyl-[1,1′-biphenyl]-3-yl)benzo[d]oxazol-5-yl)methyl)-D-proline] |  |  |  | 0.1 to 5 | 
7 | Cc1c(Nc2nccc3cc(CN4CCC(F)C4)cnc23)cccc1-c1cccc(-c2nc3cc(CN4CCC[C@H]4C(=O)O)c(OC(F)F)cc3o2)c1C (stereo partly drawn) [Example 174, ((6-(difluoromethoxy)-2-(3′-((3-((3-fluoropyrrolidin-1-yl)methyl)-1,7-naphthyridin-8-yl)amino)-2,2′-dimethyl-[1,1′-biphenyl]-3-yl)benzo[d]oxazol-5-yl)methyl)-L-proline] |  |  |  |  | 21
8 | Cc1c(-c2nc3cc(CN(C)[C@@H]4CCC[C@@H]4O)c(OC(F)F)cc3o2)cccc1-c1cccc(-c2nc3cc(CN4CCC[C@H]4C(=O)O)c(OC(F)F)cc3o2)c1C [Example 1, ((6-(difluoromethoxy)-2-(3′-(6-(difluoromethoxy)-5-((((1R,2S)-2-hydroxycyclopentyl)(methyl)amino)methyl)benzo[d]oxazol-2-yl)-2,2′-dimethyl-[1,1′-biphenyl]-3-yl)benzo[d]oxazol-5-yl)methyl)-L-proline] |  |  |  |  | 0.89
9 | Cc1c(Nc2nccc3cc(CNCC(=O)O)cnc23)cccc1-c1cccc(-c2nc3cc(CN4CCC[C@H]4C(=O)O)c(OC(F)F)cc3o2)c1C [Example 172, ((2-(3′-((3-(((carboxymethyl)amino)methyl)-1,7-naphthyridin-8-yl)amino)-2,2′-dimethyl-[1,1′-biphenyl]-3-yl)-6-(difluoromethoxy)benzo[d]oxazol-5-yl)methyl)-L-proline] |  |  |  |  | 0.3
10 | Cc1c(-c2nc3cc(CN4CCC[C@H]4C(=O)O)c(OC(F)F)cc3o2)cccc1-c1cccc(-c2nc3cc(CN4CCC(CN(C)C)C4)cc(C#N)c3o2)c1C (stereo partly drawn) [Example 152, ((2-(3′-(7-cyano-5-((3-((dimethylamino)methyl)pyrrolidin-1-yl)methyl)benzo [d]oxazol-2-yl)-2,2′-dimethyl-[1,1′-biphenyl]-3-yl)-6-(difluoromethoxy)benzo[d]oxazol-5-yl)methyl)-L-proline] |  |  |  | 0.1 to 5 | 
11 | Cc1c(-c2nc3cc(CN4CCC[C@H]4C(=O)O)c(OC(F)F)cc3o2)cccc1-c1cccc(-c2nc3cc(CN4CCC(C)(C#N)C4)cc(C#N)c3o2)c1C (stereo partly drawn) [Example 316, ((2-(3′-(7-cyano-5-((3-cyano-3-methylpyrrolidin-1-yl)methyl)benzo[d]oxazol-2-yl)-2,2′-dimethyl-[1,1′-biphenyl]-3-yl)-6-(difluoromethoxy)benzo[d]oxazol-5-yl)methyl)-L-proline] |  |  |  | 5 to 50 | 

Other lines, results leading:

Row | concentration at 0.5 h [1] [ng/mL] | concentration at 2 h [1] [ng/mL] | concentration at 4 h [1] [ng/mL] | IC50 (PD-1/PD-L1; range symbols) [nM] | IC50 (PD-1/PD-L1; numeric values) [nM] | Structure (SMILES)
12 | 19.9 | 192 | 155 |  | 0.83 | Cc1c(-c2nc3cc(CN4CC(C)C4)c(OC(F)F)cc3o2)cccc1-c1cccc(-c2nc3cc(CN4CCC[C@H]4C(=O)O)c(OC(F)F)cc3o2)c1C [Example 56, ((6-(difluoromethoxy)-2-(3′-(6-(difluoromethoxy)-5-((3-methylazetidin-1-yl)methyl)benzo[d]oxazol-2-yl)-2,2′-dimethyl-[1,1′-biphenyl]-3-yl)benzo[d]oxazol-5-yl)methyl)-L-proline]
13 | 256 | 255 | 125 | 5 to 50 |  | Cc1c(-c2nc3c(o2)CCN(CC#N)C3)cccc1-c1cccc(-c2nc3cc(CN4CCC[C@H]4C(=O)O)c(OC(F)F)cc3o2)c1C [Example 195, ((2-(3′-(5-(cyanomethyl)-4,5,6,7-tetrahydrooxazolo[4,5-c]pyridin-2-yl)-2,2′-dimethyl-[1,1′-biphenyl]-3-yl)-6-(difluoromethoxy)benzo[d]oxazol-5-yl)methyl)proline]
14 | 131 | 150 | 74.2 |  | 27 | Cc1nc(-c2cccc(-c3cccc(-c4nc5cc(CN6CCC[C@H]6C(=O)O)c(OC(F)F)cc5o4)c3C)c2C)oc1CN1CCCC1 [Example 304, ((6-(difluoromethoxy)-2-(2,2′-dimethyl-3′-(4-methyl-5-(pyrrolidin-1-ylmethyl)oxazol-2-yl)-[1,1′-biphenyl]-3-yl)benzo[d]oxazol-5-yl)methyl)-L-proline]
15 |  |  |  | 0.1 to 5 |  | Cc1cc(-c2cccc(-c3cccc(-c4nc5cc(CN6CCC[C@H]6C(=O)O)c(OC(F)F)cc5o4)c3C)c2C)ccc1CN1CCCC1 [Example 218, ((6-(difluoromethoxy)-2-(2,2′,3″-trimethyl-4″- (pyrrolidin-1-ylmethyl)-[1,1′:3′,1″-terphenyl]-3-yl)benzo[d]oxazol-5-yl)methyl)proline]
16 |  |  |  | 0.1 to 5 |  | Cc1c(-c2nc3cc(CN4CCCC4C)c(OC(F)F)cc3o2)cccc1-c1cccc(-c2nc3cc(CN4CCC[C@H]4C(=O)O)c(OC(F)F)cc3o2)c1C (stereo partly drawn) [Example 38, ((6-(difluoromethoxy)-2-(3′-(6-(difluoromethoxy)-5-((2-methylpyrrolidin-1-yl)methyl)benzo[d]oxazol-2-yl)-2,2′-dimethyl-[1,1′-biphenyl]-3-yl)benzo[d]oxazol-5-yl)methyl)-L-proline]
17 |  |  |  | 0.1 to 5 |  | Cc1c(-c2ccc(CN3CCCC3)cn2)cccc1-c1cccc(-c2nc3cc(CN4CCC[C@H]4C(=O)O)c(OC(F)F)cc3o2)c1C [Example 264, ((6-(difluoromethoxy)-2-(2,2′-dimethyl-3′-(5-(pyrrolidin-1-ylmethyl)pyridin-2-yl)-[1,1′-biphenyl]-3-yl)benzo[d]oxazol-5-yl)methyl)-L-proline]
18 |  |  |  |  | 8.4 | COc1nc(OCc2cccc(-c3cccc(-c4nc5cc(CN6CCC[C@H]6C(=O)O)c(OC(F)F)cc5o4)c3C)c2C)nc(OC)c1CN1CCCC1 [Example 212, ((6-(difluoromethoxy)-2-(3′-(((4,6-dimethoxy-5-(pyrrolidin-1-ylmethyl)pyrimidin-2-yl)oxy)methyl)-2,2′-dimethyl-[1,1′-biphenyl]-3-yl)benzo[d]oxazol-5-yl)methyl)-L-proline]
19 |  |  |  | 5 to 50 |  | Cc1c(-c2ccc(CN3Cc4ccc(NC(N)=O)cc4C3)c(F)c2)cccc1-c1cccc(-c2nc3cc(CN4CCC[C@H]4C(=O)O)c(OC(F)F)cc3o2)c1C [Example 258, ((6-(difluoromethoxy)-2-(3″-fluoro-2,2′-dimethyl-4″-((5-ureidoisoindolin-2-yl)methyl)-[1,1′:3′,1″-terphenyl]-3-yl)benzo[d]oxazol-5-yl)methyl)-L-proline]
